Measured values from patent US11207420B2, “Cytotoxin and conjugate, uses of same and preparation method therefor” (priority 2017, dated 2021).
Square brackets hold non-standard residues; d marks the D form. Peptide text beside a SMILES is read from it. * marks the point of attachment. ξ: configuration not given here. Dolaproine = CO[C@@H]([C@@H]1CCCN1)[C@@H](C)C(=O)O; Dil = CC[C@H](C)[C@H](NC)[C@@H](CC(=O)O)OC; d(β3hF) = N[C@@H](CC(=O)O)Cc1ccccc1; NH(4-aminobenzyl) = Nc1ccc(CN*)cc1; NMe2Val = CC(C)[C@@H](C(=O)*)N(C)C; β3hF = N[C@H](CC(=O)O)Cc1ccccc1; NMeV = CN[C@H](C(=O)O)C(C)C; ξF = NC(Cc1ccccc1)C(=O)O; X1 = CN(Cc1ccc(N)cc1)*

Columns and labels:
[1] = tested on: NCI-H322M; test: Inhibitory effect of small molecule toxins on cell proliferation in vitro (CCK8); format: cell-based; settings: 5000 cells/well, 3 days, starting at 20000 nM, 5-fold dilution
Method: (§1) First, tumor cells MDA-MB-468 and NCI-H322M were cultured; the small molecule toxins of the present invention, maytansin derivative (DM1, Nanjing Lianning), monomethyl auristatin F (MMAF, Nanjing Lianning) were co-cultured respectively with the tumor cells. Then, CCK8 reagent (Dongren Chemical Technology Co., Ltd.) was added, followed by detection with the microplate reader (manufacturer: Molecular Devices, model: SpectraMax M2) (wavelength: 450 nm). The activity of dehydrogenase in mitochondria was detected, to evaluate the inhibitory effect of small molecule toxins on cell proliferation.
(§2) Test of cell activity in vitro: toxins were diluted (10 concentration gradients) with the corresponding test medium (containing 2% FBS). Tumor cells were trypsinized by a conventional method using trypsin, and cells were collected by tube and resuspended in the corresponding test medium (containing 2% FBS). The diluted toxins were added to a 96-well plate, to which were added the cells. Thereafter, 20 μL of CCK8 reagent was added to each well, and reaction was carried out for 4 hours, followed by detection with the microplate reader (wavelength: 450 nm).

[2] = tested on: MDA-MB-468; test: as above; format: cell-based; settings: MDA-MB-468, 7500 cells/well, 4 days
Method: as §1, §2

[3] = Homo sapiens, MDA-MB-468, 96 h, Table 3, starting at 10 nM, 2-fold dilution
[4] = Table 2, 3-fold dilution starting at 10000 nM (T001: 500 nM)

| SMILES | EC50 [2, 3] [nM] | other results |
| --- | --- | --- |
| CC[C@H](C)[C@@H]([C@@H](CC(=O)N1CCC[C@H]1[C@H](OC)[C@@H](C)C(=O)NC(Cc1ccccc1)C(=O)NCc1ccc(N)cc1)OC)N(C)C(=O)[C@@H](NC(=O)[C@H](C(C)C)N(C)C)C(C)C (stereo partly drawn) [Example T001, (2S)—N-((3R,4S,5 S)-1-((2S)-2-((1R,2R)-3-((1-((4-aminobenzyl)amino)-1-oxo-3-phenylprop-2-yl)amino)-1-methoxy-2-methyl-3-propionyl)pyrrolidin-1-yl)-3-methoxy-5-methyl-1-heptanoyl-4-yl)-2-((S)-2-(dimethylamino)-3-methylbutyramido)-N,3-dimethylbutyramide] (NMe2Val-V[Dil][Dolaproine][ξF]-{NH(4-aminobenzyl)}) | 1.13 | EC50 ([1]; Homo sapiens, 72 h): 2 nM; EC50 ([2]; Homo sapiens, MDA-MB-468, 96 h, Table 2, 3-fold dilution starting at 10000 nM (T001: 500 nM)): 0.538 nM |
| CC[C@H](C)[C@@H]([C@@H](CC(=O)N1CCC[C@H]1[C@H](OC)[C@@H](C)C(=O)N[C@H](Cc1ccccc1)C(=O)N(C)Cc1ccc(N)cc1)OC)N(C)C(=O)[C@@H](NC(=O)[C@H](C(C)C)N(C)C)C(C)C [Example T002, (S)—N-((3R,4 S,5 S)-1-((S)-2-((1R,2R)-3-(((R)-1-((4-aminobenzyl)(methyl)amino)-1-oxo-3-phenylprop-2-yl)amino)-1-methoxy-2-methyl-3-propionyl)pyrrolidin-1-yl)-3-methoxy-5-methyl-1-heptanoyl-4-yl)-2-((S)-2-(dimethylamino)-3-methylbutyramido)-N,3-dimethylbutyramide] (NMe2Val-V[Dil][Dolaproine][dF]-X1) | > 10 |  |
| CC[C@H](C)[C@@H]([C@@H](CC(=O)N1CCC[C@H]1[C@H](OC)[C@@H](C)C(=O)N[C@@H](Cc1ccccc1)C(=O)N(C)Cc1ccc(N)cc1)OC)N(C)C(=O)[C@@H](NC(=O)[C@H](C(C)C)N(C)C)C(C)C [Example T003, (S)—N-((3R,4S,5 S)-1-((S)-2-((1R,2R)-3-(((S)-1-((4-aminobenzyl)(methyl)amino)-1-oxo-3-phenylprop-2-yl)amino)-1-methoxy-2-methyl-3-propionyl)pyrrolidin-1-yl)-3-methoxy-5-methyl-1-heptanoyl-4-yl)-2-((S)-2-(dimethylamino)-3-methylbutyramido)-N,3-dimethylbutyramide] (NMe2Val-V[Dil][Dolaproine]F-X1) | 3.2 |  |
| CC[C@H](C)[C@@H]([C@@H](CC(=O)N1CCC[C@H]1[C@H](OC)[C@@H](C)C(=O)N[C@@H](Cc1ccccc1)C(=O)NCc1ccc(N)cc1)OC)N(C)C(=O)[C@@H](NC(=O)[C@H](C(C)C)N(C)C)C(C)C [Example T011] (NMe2Val-V[Dil][Dolaproine]F-{NH(4-aminobenzyl)}) | 0.211 |  |
| CC[C@H](C)[C@@H]([C@@H](CC(=O)N1CCC[C@H]1[C@H](OC)[C@@H](C)C(=O)N[C@H](Cc1ccccc1)C(=O)NCc1ccc(N)cc1)OC)N(C)C(=O)[C@@H](NC(=O)[C@H](C(C)C)N(C)C)C(C)C [Example T012] (NMe2Val-V[Dil][Dolaproine][dF]-{NH(4-aminobenzyl)}) | 1.62 |  |
| CC[C@H](C)[C@@H]([C@@H](CC(=O)N1CCC[C@H]1[C@H](OC)[C@@H](C)C(=O)N[C@H](CC(=O)NCc1ccc(N)cc1)Cc1ccccc1)OC)N(C)C(=O)[C@@H](NC(=O)[C@H](C(C)C)N(C)C)C(C)C [Example T013, (S)—N-((3R,4S,5 S)-1-((S)-2-((1R,2R)-3-(((S)-4-((4-aminobenzyl)amino)-4-oxo-1-phenylbut-2-yl)amino)-1-methoxy-2-methyl-3-oxopropyl)pyrrolidin-1-yl)-3-methoxy-5-methyl-1-oxoheptyl-4-yl)-2-((S)-2-(dimethylamino)-3-methylbutyramido)-N,3-dimethylbutyramide] (NMe2Val-V[Dil][Dolaproine][β3hF]-{NH(4-aminobenzyl)}) | 0.414 |  |
| CC[C@H](C)[C@@H]([C@@H](CC(=O)N1CCC[C@H]1[C@H](OC)[C@@H](C)C(=O)N[C@@H](CC(=O)NCc1ccc(N)cc1)Cc1ccccc1)OC)N(C)C(=O)[C@@H](NC(=O)[C@H](C(C)C)N(C)C)C(C)C [Example T014, (S)—N-((3R,4S,5 S)-1-((S)-2-((1R,2R)-3-(((R)-4-((4-aminobenzyl)amino)-4-oxo-1-phenylbut-2-yl)amino)-1-methoxy-2-methyl-3-oxopropyl)pyrrolidin-1-yl)-3-methoxy-5-methyl-1-oxoheptyl-4-yl)-2-((S)-2-(dimethylamino)-3-methylbutyramido)-N,3-dimethylbutyramide] (NMe2Val-V[Dil][Dolaproine][d(β3hF)]-{NH(4-aminobenzyl)}) | 1.24 |  |
| CC[C@H](C)[C@@H]([C@@H](CC(=O)N1CCC[C@H]1[C@H](OC)[C@@H](C)C(=O)NCC(=O)NCc1ccc(N)cc1)OC)N(C)C(=O)[C@@H](NC(=O)[C@H](C(C)C)N(C)C)C(C)C [Example T015, (S)—N-((3R,4S,5 S)-1-((S)-2-((1R,2R)-3-((2-((4-aminobenzyl)amino)-2-oxoethyl)amino)-1-methoxy-2-methyl-3-oxopropyl)pyrrolidin-1-yl)-3-methoxy-5-methyl-1-oxoheptyl-4-yl)-2-((S)-2-(dimethylamino)-3-methylbutyramido)-N,3-dimethylbutyramide] (NMe2Val-V[Dil][Dolaproine]G-{NH(4-aminobenzyl)}) | 7.43 |  |
| CC[C@H](C)[C@@H]([C@@H](CC(=O)N1CCC[C@H]1[C@H](OC)[C@@H](C)C(=O)N[C@@H](C)C(=O)NCc1ccc(N)cc1)OC)N(C)C(=O)[C@@H](NC(=O)[C@H](C(C)C)N(C)C)C(C)C [Example T016] (NMe2Val-V[Dil][Dolaproine]A-{NH(4-aminobenzyl)}) | 5.71 |  |
| CC[C@H](C)[C@@H]([C@@H](CC(=O)N1CCC[C@H]1[C@H](OC)[C@@H](C)C(=O)N[C@@H](CC(C)C)C(=O)NCc1ccc(N)cc1)OC)N(C)C(=O)[C@@H](NC(=O)[C@H](C(C)C)N(C)C)C(C)C [Example T018] (NMe2Val-V[Dil][Dolaproine]L-{NH(4-aminobenzyl)}) | 2.35 |  |
| CC[C@H](C)[C@@H]([C@@H](CC(=O)N1CCC[C@H]1[C@H](OC)[C@@H](C)C(=O)N[C@H](C(=O)NCc1ccc(N)cc1)C(C)C)OC)N(C)C(=O)[C@@H](NC(=O)[C@H](C(C)C)N(C)C)C(C)C [Example T019] (NMe2Val-V[Dil][Dolaproine]V-{NH(4-aminobenzyl)}) | 1.16 |  |
| COc1cc2cc(c1Cl)N(C)C(=O)C[C@H](OC(=O)[C@H](C)N(C)C(=O)CCS)[C@]1(C)O[C@H]1[C@H](C)[C@@H]1C[C@@](O)(NC(=O)O1)[C@H](OC)/C=C/C=C(\C)C2 [maytansin derivative (DM1), reference compound] |  | EC50 [1]: 38.8 nM; EC50 [2, 4]: 7.61 nM |
| CC[C@H](C)[C@@H]([C@@H](CC(=O)N1CCC[C@H]1[C@H](OC)[C@@H](C)C(=O)N[C@@H](Cc1ccccc1)C(=O)O)OC)N(C)C(=O)[C@@H](NC(=O)[C@@H](NC)C(C)C)C(C)C [monomethyl auristatin F (MMAF), monomethyl auristatin F, reference compound] (H-[NMeV]V[Dil][Dolaproine]F-OH) |  | EC50 [1]: 118 nM; EC50 [2, 4]: 98.4 nM |
